Results taken from ChEMBL document CHEMBL5032495, “Discovery of Novel Tacrine-Pyrimidone Hybrids as Potent Dual AChE/GSK-3 Inhibitors for the Treatment of Alzheimer's Disease” (J Med Chem, 2021).
The source made the active and inactive calls. No cut-off for these calls is given here.

What was measured:
Acetylcholinesterase = target: T1, Acetylcholinesterase (Mus musculus, UniProt P21836); experiment: Inhibition of mouse AChE using acetylthiocholine iodide as substrate incubated for 20 mins by Ellman's method
T1 sequence (P21836 whole entry): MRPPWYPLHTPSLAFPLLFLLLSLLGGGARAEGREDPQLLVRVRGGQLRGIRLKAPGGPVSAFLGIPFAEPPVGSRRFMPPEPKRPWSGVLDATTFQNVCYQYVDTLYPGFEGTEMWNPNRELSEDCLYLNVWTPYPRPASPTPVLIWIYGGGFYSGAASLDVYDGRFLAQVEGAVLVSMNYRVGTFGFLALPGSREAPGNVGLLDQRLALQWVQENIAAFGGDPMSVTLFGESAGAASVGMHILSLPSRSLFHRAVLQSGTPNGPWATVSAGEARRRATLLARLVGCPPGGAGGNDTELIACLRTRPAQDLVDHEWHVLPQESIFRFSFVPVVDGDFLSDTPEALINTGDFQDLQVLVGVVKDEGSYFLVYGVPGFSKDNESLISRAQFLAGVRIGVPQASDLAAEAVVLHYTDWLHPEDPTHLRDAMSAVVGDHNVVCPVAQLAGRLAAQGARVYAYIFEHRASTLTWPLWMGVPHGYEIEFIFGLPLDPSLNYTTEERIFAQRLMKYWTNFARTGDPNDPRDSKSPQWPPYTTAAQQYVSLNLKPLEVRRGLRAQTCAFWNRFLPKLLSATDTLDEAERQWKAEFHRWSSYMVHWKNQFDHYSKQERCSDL

[1] = target: T2, Glycogen synthase kinase-3 beta (Homo sapiens, UniProt P49841)
Target sequence in this assay (P49841 whole entry): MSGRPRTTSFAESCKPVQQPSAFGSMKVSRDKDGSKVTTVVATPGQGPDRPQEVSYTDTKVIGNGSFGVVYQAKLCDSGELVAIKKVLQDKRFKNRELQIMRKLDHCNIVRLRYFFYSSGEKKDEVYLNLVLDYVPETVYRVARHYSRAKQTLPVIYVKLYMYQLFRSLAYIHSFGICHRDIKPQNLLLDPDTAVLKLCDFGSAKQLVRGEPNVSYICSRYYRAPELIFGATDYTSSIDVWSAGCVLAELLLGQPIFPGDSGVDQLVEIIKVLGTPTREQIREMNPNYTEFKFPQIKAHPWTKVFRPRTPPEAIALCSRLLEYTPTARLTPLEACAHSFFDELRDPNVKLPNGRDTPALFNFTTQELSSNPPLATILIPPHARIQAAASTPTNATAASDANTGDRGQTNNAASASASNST

[2] = target: T3, Acetylcholinesterase (Mus musculus) (UniProt P21836); experiment: Inhibition of mouse AChE using acetylthiocholine iodide as substrate at 1 uM incubated for 20 mins by Ellman's method relative to control
T3 sequence (whole entry): T1 sequence (P21836 whole entry)

[3] = target: T2, Glycogen synthase kinase-3 beta; experiment: Inhibition of human recombinant GSK-3beta using prephosphorylated polypeptide as substrate incubated for 30 mins in presence of ATP by Kinase-Glo luminescence assay relative to control
Target sequence in this assay (P49841 whole entry, looked up): as the sequence (P49841 whole entry) above

[4] = Toxicity in ICR mouse assessed as emesis at 15 mg/kg, ip measured after 15 days; type: organism-based; settings: in vivo, 360 h, time 15 day
[5] = Toxicity in ICR mouse assessed as diarrhea at 15 mg/kg, ip measured after 15 days; type: organism-based; settings: in vivo, 360 h, time 15 day
[6] = Toxicity in ICR mouse assessed as swimming motility impairment at 15 mg/kg, ip measured after 15 days; type: organism-based; settings: in vivo, 360 h, time 15 day
SH-SY5Y [7] = experiment: Neuroprotective activity against glyceraldehyde-induced neurotoxicity in human SH-SY5Y cells assessed as increase in cell viability at 0.5 to 5 uM incubated for 24 hrs by MTT assay; type: functional, cell-based; settings: dose 0.5-5 µM
SH-SY5Y [8] = experiment: Neuroprotective activity in human SH-SY5Y cells assessed as prevention of glyceraldehyde-induced neurite shortening at 0.5 to 5 uM incubated for 1 hr by confocal microsocopic analysis; type: functional, cell-based; settings: dose 0.5-5 µM

Row | Compound | IC50 (Acetylcholinesterase) [µM] | IC50 [1] [µM] | inhibition [3] [%] | further results
1 | Cn1c(NCCCCCNc2c3c(nc4ccccc24)CCCC3)nc(-c2ccncc2)cc1=O | 0.4 | 1.28 |  | 
2 | Cn1c(NCCNc2c3c(nc4cc(Cl)ccc24)CCCC3)nc(-c2ccncc2F)cc1=O | 0.16 | 14 |  | 
3 | Cn1c(NCCNc2c3c(nc4ccc(C(C)(F)F)cc24)CCCC3)nc(-c2ccncc2)cc1=O |  |  | < 50 | inhibition [2]: < 50%
4 | COc1ccc2c(NCCNc3nc(-c4ccncn4)cc(=O)n3C)c3c(nc2c1)CCCC3 | 23 |  | < 50 | 
5 | Cn1c(NCCCCCCCNc2c3c(nc4cc(Br)ccc24)CCCC3)nc(-c2ccncc2F)cc1=O | 58.1 | 91 |  | 
6 | Cn1c(NCCCCCCCNc2c3c(nc4cc(Cl)ccc24)CCCC3)nc(-c2ccncc2)cc1=O | 37.5 |  | < 60 | 
7 | Cn1c(NCCCCCCNc2c3c(nc4cc(Br)ccc24)CCCC3)nc(-c2ccncc2)cc1=O | 45 |  | < 60 | 
8 | Cn1c(NCCCCCCNc2c3c(nc4ccc(F)cc24)CCCC3)nc(-c2ccncc2)cc1=O | 2420 |  | < 60 | 
9 | Cn1c(NCCNc2c3c(nc4cc(Br)ccc24)CCCC3)nc(-c2ccncc2)cc1=O | 0.44 |  | < 50 | 
10 | Cn1c(NCCCCCCCNc2c3c(nc4ccccc24)CCCC3)nc(-c2ccncc2)cc1=O | 0.13 | 0.33 |  | Activity [4]: Non-Toxic; Activity [5]: Non-Toxic; Activity [6]: Non-Toxic
11 | Cn1c(NCCNc2c3c(nc4cc(F)ccc24)CCCC3)nc(-c2ccncc2)cc1=O | 3.9 |  | < 50 | 
12 | Cc1ccc2c(NCCCCCCCNc3nc(-c4ccncc4F)cc(=O)n3C)c3c(nc2c1)CCCC3 | 174 | 137 |  | 
13 | Cn1c(NCCNc2c3c(nc4cc(F)ccc24)CCCC3)nc(-c2ccncn2)cc1=O | 0.18 |  | < 50 | 
14 | Cn1c(NCCNc2c3c(nc4cc(Cl)ccc24)CCCC3)nc(-c2ccncc2)cc1=O | 0.49 |  | < 50 | 
15 | Cn1c(NCCNc2c3c(nc4ccc(Br)cc24)CCCC3)nc(-c2ccncc2)cc1=O | 15.8 |  | < 50 | 
16 | Cn1c(NCCNc2c3c(nc4cc(C(F)(F)F)ccc24)CCCC3)nc(-c2ccncc2)cc1=O | 11.3 |  | < 50 | 
17 | Cn1c(NCCCCCCNc2c3c(nc4cc(F)ccc24)CCCC3)nc(-c2ccncc2)cc1=O | 163 |  | < 60 | 
18 | COc1cc2c(cc1OC)C(=O)C(CC1CCN(Cc3ccccc3)CC1)C2 (stereo not given) [DONEPEZIL] |  | > 100 |  | 
19 | Cn1c(NCCCCCCNc2c3c(nc4cc(Br)ccc24)CCCC3)nc(-c2ccncc2F)cc1=O | 70.3 | 179 |  | 
20 | Cn1c(NCCCCCCCNc2c3c(nc4cc(F)ccc24)CCCC3)nc(-c2ccncc2)cc1=O | 124 |  | < 60 | 
21 | Cn1c(NCCCCCCCNc2c3c(nc4ccccc24)CCCC3)nc(-c2ccncc2F)cc1=O | 352 | 67.2 |  | 
22 | Cc1ccc2c(NCCCCCCNc3nc(-c4ccncc4)cc(=O)n3C)c3c(nc2c1)CCCC3 | 239 |  | < 60 | 
23 | COc1ccc2nc3c(c(NCCNc4nc(-c5ccncc5)cc(=O)n4C)c2c1)CCCC3 | 15.7 |  | < 50 | 
24 | Cn1c(NCCCCCCCNc2c3c(nc4ccc(F)cc24)CCCC3)nc(-c2ccncc2)cc1=O | 1800 |  | < 60 | 
25 | Cn1c(NCCNc2c3c(nc4ccc(Cl)cc24)CCCC3)nc(-c2ccncn2)cc1=O | 18.8 |  | < 50 | 
26 | Cc1ccc2nc3c(c(NCCNc4nc(-c5ccncc5)cc(=O)n4C)c2c1)CCCC3 | 20 |  | < 50 | 

Row | Compound | IC50 (Acetylcholinesterase) [µM] | IC50 [1] [µM] | inhibition [3] [%] | further results
27 | COc1ccc2c(NCCNc3nc(-c4ccncc4F)cc(=O)n3C)c3c(nc2c1)CCCC3 | 9.92 | 19 |  | 
28 | O=c1sn(-c2cccc3ccccc23)c(=O)n1Cc1ccccc1 |  |  |  | Activity (SH-SY5Y [7]): Active; Activity (SH-SY5Y [8]): Active
29 | Cc1ccc2c(NCCCCCCCNc3nc(-c4ccncc4)cc(=O)n3C)c3c(nc2c1)CCCC3 | 145 |  | < 60 | 
30 | Cn1c(NCCNc2c3c(nc4ccc(Cl)cc24)CCCC3)nc(-c2ccncc2F)cc1=O | 9.8 | 8.13 |  | 
31 | Cn1c(NCCNc2c3c(nc4ccc(Cl)cc24)CCCC3)nc(-c2ccncc2)cc1=O | 10.9 |  | < 50 | 
32 | COc1ccc(CNC(=O)Nc2ncc([N+](=O)[O-])s2)cc1 | > 40 |  |  | 
33 | Cn1c(NCCCCCCNc2c3c(nc4cc(Cl)ccc24)CCCC3)nc(-c2ccncc2F)cc1=O | 52.7 | 178 |  | 
34 | Cn1c(NCCCCCCCNc2c3c(nc4cc(Br)ccc24)CCCC3)nc(-c2ccncc2)cc1=O | 39 |  | < 60 | 
35 | Cn1c(NCCCCCCNc2c3c(nc4ccccc24)CCCC3)nc(-c2ccncc2F)cc1=O | 631 | 126 |  | 
36 | Cn1c(NCCNc2c3c(nc4ccc(F)cc24)CCCC3)nc(-c2ccncc2)cc1=O | 0.37 |  | < 50 | 
37 | COc1ccc2c(NCCNc3nc(-c4ccncc4)cc(=O)n3C)c3c(nc2c1)CCCC3 | 8.3 |  | < 50 | 
38 | Cn1c(NCCCCCCNc2c3c(nc4ccccc24)CCCC3)nc(-c2ccncc2)cc1=O | 0.12 | 0.52 |  | 
39 | Cn1c(NCCCCCCNc2c3c(nc4cc(F)ccc24)CCCC3)nc(-c2ccncc2F)cc1=O | 134 | 174 |  | 
40 | Cc1ccc2c(NCCNc3nc(-c4ccncc4)cc(=O)n3C)c3c(nc2c1)CCCC3 | 1.89 |  | < 50 | 
41 | Cn1c(NCCNc2c3c(nc4ccccc24)CCCC3)nc(-c2ccncn2)cc1=O | 0.8 | 5.63 |  | 
42 | Cn1c(NCCNc2c3c(nc4ccccc24)CCCC3)nc(-c2ccncc2)cc1=O | 1.06 | 4.04 |  | 
43 | Cc1ccc2c(NCCCCCCNc3nc(-c4ccncc4F)cc(=O)n3C)c3c(nc2c1)CCCC3 | 298 | 239 |  | 
44 | Cn1c(NCCNc2c3c(nc4cc(Cl)ccc24)CCCC3)nc(-c2ccncn2)cc1=O | 0.42 |  | < 50 | 
45 | Cn1c(NCCNc2c3c(nc4ccccc24)CCCC3)nc(-c2ccncc2F)cc1=O | 4.98 | 1.18 |  | 
46 | Cn1c(NCCCCCCNc2c3c(nc4ccc(F)cc24)CCCC3)nc(-c2ccncc2F)cc1=O | 2210 | 154 |  | 
47 | Cn1c(NCCCCNc2c3c(nc4ccccc24)CCCC3)nc(-c2ccncc2)cc1=O | 1.42 | 0.92 |  | 
48 | Cn1c(NCCNc2c3c(nc4cc(F)ccc24)CCCC3)nc(-c2ccncc2F)cc1=O | 0.73 | 11.9 |  | 
49 | Cn1c(NCCCCCCCNc2c3c(nc4cc(F)ccc24)CCCC3)nc(-c2ccncc2F)cc1=O | 134 | 104 |  | 
50 | Cn1c(NCCCNc2c3c(nc4ccccc24)CCCC3)nc(-c2ccncc2)cc1=O | 2.85 |  | < 50 | 
51 | Cn1c(NCCCCCCNc2c3c(nc4cc(Cl)ccc24)CCCC3)nc(-c2ccncc2)cc1=O | 53 |  | < 60 | 
52 | Cn1c(NCCCCCCCNc2c3c(nc4ccc(F)cc24)CCCC3)nc(-c2ccncc2F)cc1=O | 2380 | 96.1 |  | 
